Test systems include MDA-MB-435; PC-3; T47D; MDA-MB-231; MDA-N.
Holding throughout (test): growth of human tumour cells (NCI), 48 h

Each structure is given as a SMILES string.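 Exposure lasted 48 hours, with cells grown in 96-well plates and compounds tested at five concentrations. GI50 marks 50% less growth.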 The source made the active and inactive calls. No stated cut-off is given here; in the data, active = GI50 up to about 1.1 µM and inactive = higher.

As for `N#C/N=[N+](\[O-])c1ccc(C(=O)O)cc1`, the GI50 was 17.9 µM (inactive) in the assay on MDA-MB-435 and 17.1 µM (inactive) with PC-3.
For the compound `COc1ccc(C(C2C(=O)N(C)C(=O)N(C)C2=O)C(F)(F)C(=O)N(C)C)cc1` (configuration not stated), the GI50 in the assay on T47D, in the assay with MDA-MB-435, with PC-3 and in the assay with MDA-MB-231 was > 100 µM (inactive) in each case.
`Cc1ccc(S(=O)(=O)NC(=O)NC(CCCCNC(=N)N)C(=O)O)cc1` (configuration not stated): the GI50 in the assay with MDA-N, in the assay on T47D, in the assay on PC-3 and in the assay on MDA-MB-231 was > 100 µM (inactive) each time.
In the case of `CC(=O)[C@@]1(c2ccccc2)CC2(CCN(C)CC2)O[C@H]1C`, the GI50 in the assay on MDA-N, in the assay with T47D, in the assay with MDA-MB-435 and with MDA-MB-231 was > 100 µM (inactive) throughout.
`C=C(NC(=O)C(=C)NC(=O)c1ccc2c(n1)-c1coc(n1)C(=C)NC(=O)C(=C)NC(=O)c1nc(oc1C)C(=C)NC(=O)C(C(C)(C)O)NC(=O)C(=C)NC(=O)c1coc(n1)/C(=C/C)NC(=O)[C@H]([C@@H](C)O)NC(=O)c1csc-2n1)C(N)=O` (some centres not stated): the GI50 in the assay with MDA-N, in the assay with MDA-MB-435, in the assay with PC-3 and in the assay on MDA-MB-231 was > 87.5 µM (inactive) throughout.
On to `O=CNCNCCO`, for which the GI50 in the assay on T47D was > 100 µM (inactive).
For the compound `NC(=O)c1ccccc1NC(=O)C(=O)C(c1cnc2ccc([N+](=O)[O-])cc2n1)[N+](=O)[O-]` (configuration not stated), the GI50 with T47D, in the assay on MDA-MB-435, in the assay with PC-3 and in the assay with MDA-MB-231 was > 100 µM (inactive) throughout.
Regarding `CC(C)Oc1cccc(N2C(n3ccnc3)=Nc3ccncc3S2(=O)=O)c1`, the GI50 in the assay with MDA-N is 12.8 µM (inactive); in the assay with T47D it was 13.1 µM (inactive); in the assay with MDA-MB-435, 11.9 µM (inactive); in the assay on PC-3, 10.8 µM (inactive).
For the compound `O=C1C(Cl)=C(N2CCSCC2)C(=O)c2c(O)ccc(O)c21`, the GI50 with MDA-N is 0.33 µM (active); in the assay with T47D, 0.662 µM (active); in the assay on MDA-MB-435 it was 0.631 µM (active); in the assay on PC-3, 0.1 µM (active); with MDA-MB-231, 0.308 µM (active).
Consider `CN1CN(c2ccccc2)C2(CCN(CCCC(=O)c3cccs3)CC2)C1=O`, for which the GI50 was 68.7 µM (inactive) in the assay on MDA-N, 29 µM (inactive) in the assay on T47D, 94.8 µM (inactive) with PC-3 and 50.9 µM (inactive) in the assay with MDA-MB-231.
`CCOC(=O)c1cn2c(n1)sc1cc([N+](=O)[O-])ccc12`: the GI50 in the assay on T47D was > 100 µM (inactive); in the assay on MDA-MB-435, > 100 µM (inactive); with PC-3, > 100 µM (inactive); in the assay on MDA-MB-231, 38.5 µM (inactive).
Consider `C(=C\Nc1ccc(Oc2ccccc2)cc1)/C=N/c1ccc(Oc2ccccc2)cc1`, for which the GI50 in the assay with MDA-N was 16.2 µM (inactive); in the assay on MDA-MB-435, 17.4 µM (inactive); with PC-3, 15.1 µM (inactive); with MDA-MB-231 it was 17.1 µM (inactive).
Consider `COc1ccc(N(C)C(=O)N(C)c2ccc([N+](=O)[O-])cc2)cc1`, for which the GI50 was 9.25 µM (inactive) with MDA-N, 66.4 µM (inactive) with T47D, 4.21 µM (inactive) in the assay on MDA-MB-435 and 45.3 µM (inactive) in the assay on MDA-MB-231.
As for `CCN(CCO)C(=O)C1(c2ccccc2)CCCCC1`, the GI50 with T47D, in the assay on MDA-MB-435, in the assay on PC-3 and in the assay with MDA-MB-231 was > 10 µM (inactive) in each case.
For the compound `BrP(NC1CCCCCC1)(c1ccccc1)(c1ccccc1)c1ccccc1`, the GI50 in the assay on T47D was 1.93 µM (inactive); in the assay on MDA-MB-435 it was 2.15 µM (inactive); in the assay with PC-3, 1.56 µM (inactive); with MDA-MB-231, 3.56 µM (inactive).
`CCCOC1OC(CS(=O)(=O)O)C(O)C(O)C1O` (configuration not stated): the GI50 in the assay on MDA-N, in the assay on T47D, with MDA-MB-435 and in the assay with PC-3 was > 100 µM (inactive) in each case.
Take `Cc1cnc2nc(-c3ccc4ccccc4c3)cc(O)c2c1`: the GI50 with T47D was > 100 µM (inactive); with MDA-MB-231, 1.05 µM (active).

For the origin of these results see ChEMBL document CHEMBL1201862, “PubChem BioAssay data set” (2004).
